Results published in patent US9388313B2, “Water-insoluble coloring compound, ink, thermal transfer recording sheet, and color filter resist composition” (CANON KABUSHIKI KAISHA, priority 2012, dated 2016).
Like-named read-outs stand apart in the source and are kept apart here.

Key:
[1] = Evaluation of solvent solubility of water-insoluble coloring compound (visual); assay type: physicochemical; details: organic solvent or mixture, thermodynamic from solid, room temperature
Method: The solvent solubilities of Compounds (1), (4), (11), (18), (23), (26), and (28) as the water-insoluble coloring compounds and Comparative Compounds (1) and (2) were evaluated by dissolving 30 mg of each compound in 0.7 mL of each solvent, toluene, methanol, ethyl acetate, or chloroform, at room temperature, and visually observing each solution according to the following evaluation criteria:
B: suspended material slightly remained, and […]

[2] = Visual investigation of color filters; details: cyclohexanone-based resist composition
Method: Color filter resist composition (1) of the present invention was prepared by slowly adding 22 parts of Ink (A) to a solution of 6.7 parts of an acrylic copolymer composition (weight average molecular weight Mw: 10000) composed of 40% by mass of n-butyl methacrylate, 30% by mass of acrylic acid, and 30% by mass of hydroxyethyl methacrylate in monomer ratios, 1.3 parts of dipentaerythritol pentaacrylate, and 0.4 parts of 2-benzyl-2-dimethylamino-1-(4-morpholinophenyl)-butanone (photopolymerization initiator) in 96 parts of cyclohexanone, stirring the mixture at room temperature for 3 hours, and filtering the reaction solution through a filter of 1.5 μm pore size.
Color filter (1) was produced by spin-coating color filter resist composition (1) on a glass substrate and then drying at 90° C. for 3 min, exposure of the entire surface to light, and post-curing at 180° C.

[3] = 30 mg in 0.7 mL chloroform, read-out: Solubility Chloroform
[4] = 30 mg in 0.7 mL ethyl acetate, read-out: Solubility Ethyl acetate
[5] = 30 mg in 0.7 mL methanol, read-out: Solubility Methanol
[6] = 30 mg in 0.7 mL toluene, read-out: Solubility Toluene

Compound | solubility [1, 3] | solubility [1, 4] | solubility [1, 5] | solubility [1, 6] | solvent solubility (demonstrated by spin-coating uniformity) [2]
CCCCC(CC)CN(CC(CC)CCCC)S(=O)(=O)c1ccccc1/N=N/c1c(O)[nH]c(=O)c(C(=O)OCC)c1C (centres unmarked) [Compound 4] | > 42.9 mg/mL | > 42.9 mg/mL | > 42.9 mg/mL | > 42.9 mg/mL | 
CCCCC(CC)CN(CC(CC)CCCC)C(=O)c1ccccc1/N=N/c1c(O)[nH]c(=O)c(C(=O)NC(C)(C)C)c1C (centres unmarked) [Compound 23] | > 42.9 mg/mL | > 42.9 mg/mL | > 42.9 mg/mL | > 42.9 mg/mL | 
CCCCCc1c(/N=N/c2ccccc2C(=O)N(CC(CC)CCCC)CC(CC)CCCC)c(O)[nH]c(=O)c1C(=O)N1CCCCC1 (centres unmarked) [Compound 26] | > 42.9 mg/mL | > 42.9 mg/mL | > 42.9 mg/mL | > 42.9 mg/mL | 
CCOC(=O)c1c(C)c(/N=N/c2ccccc2C(=O)N(C2CCCCC2)C2CCCCC2)c(O)[nH]c1=O [Compound 28] | > 42.9 mg/mL | > 42.9 mg/mL | > 42.9 mg/mL | > 42.9 mg/mL | 
CCCCC(CC)CN(CC(CC)CCCC)S(=O)(=O)c1ccc(/N=N/c2c(O)[nH]c(=O)c(C#N)c2C)cc1 (centres unmarked) [compound 1, reference compound] | < 42.9 mg/mL | < 42.9 mg/mL | < 42.9 mg/mL | < 42.9 mg/mL | poor solvent solubilities
CCCCC(CC)CN(CC(CC)CCCC)C(=O)c1ccc(/N=N/c2c(O)[nH]c(=O)c(C#N)c2C)cc1 (centres unmarked) [compound 2, reference compound] | < 42.9 mg/mL | < 42.9 mg/mL | < 42.9 mg/mL | < 42.9 mg/mL | poor solvent solubilities

Now from value to compound:

solubility [1, 3] | solubility [1, 4] | solubility [1, 5] | solubility [1, 6] | solvent solubility (demonstrated by spin-coating uniformity) [2] | Compound
> 42.9 mg/mL | > 42.9 mg/mL | > 42.9 mg/mL | > 42.9 mg/mL | high solvent solubilities | CCCCC(CC)CN(CC(CC)CCCC)C(=O)c1ccccc1/N=N/c1c(O)[nH]c(=O)c(C(=O)OCC)c1C (centres unmarked) [Compound 1]
> 42.9 mg/mL | > 42.9 mg/mL | > 42.9 mg/mL | > 42.9 mg/mL | high solvent solubilities | CCCCC(CC)CN(CC(CC)CCCC)C(=O)c1cccc(/N=N/c2c(O)[nH]c(=O)c(C(=O)OCC)c2C)c1 (centres unmarked) [Compound 11]
> 42.9 mg/mL | > 42.9 mg/mL | > 42.9 mg/mL | > 42.9 mg/mL | high solvent solubilities | CCCCC(CC)CN(CC(CC)CCCC)C(=O)c1ccc(/N=N/c2c(O)[nH]c(=O)c(C(=O)OCC)c2C)cc1 (centres unmarked) [Compound 18]
